Results on three molecules are retold here after patent US10428028B2, “HDAC inhibitors” (BIOMARIN PHARMACEUTICAL INC., priority 2013, dated 2019).

Each structure is given as a SMILES string. Read-outs that look alike come from different tables or passages of the source. Some results are limits rather than exact numbers.

The nature of data set [1]: Hepatocyte stability and metabolism (parent remaining, acid and OPD formation). Type of data set: in vitro ADME. As to conditions: human hepatocytes; for % left 6H Hum hep: 5 μM; for OPD: OPD formation by LC-MS/MS after phenylglyoxal derivatisation. As for the experimental part:
The inventors have found, however, that formula (I) compound metabolites are substantially free of OPD when formula (I) compounds are subjected to conditions intended to mimic in vivo metabolism pathways. As used herein, the term “substantially free of OPD” means that OPD was not detected by LC-MS/MS after (i) incubating a formula (I) compound with human, monkey, dog and rat hepatocytes and (ii) treating the metabolite milieu with an acidic solution of phenylglyoxal in an organic solvent (this addition leads to quantitative formation of 2-phenylquinoxaline, which can be easily quantified with a low lower limit of quantitation (LLOQ)). See the Examples section.
To assess the stability and metabolism of RGFP compounds and to quantify the metabolites in hepatocytes. This assay was designed to evaluate the metabolism of RGFP compounds, following their incubation with human, monkey, dog and rat hepatocytes by monitoring either parent drug disappearance or metabolite appearance using LC-MS/MS. The results are shown in Table 5 ((% Left in Hep: IA<10%, 50%<A, 50%>B>30%, 30%>C>10%, ND: not determined).
Procedure: Turn on the water-bath heater to 37° C. Take out the KHB buffer and make sure it is at room temp before use. Prepare 2.5 mM concentration of RGFP compound in DMSO stock. Add 10 μL of above DMSO stock to 2490 μL KHB buffer; final concentration of RGFP compound will be 10 μM. Pre-warm 45 ml InVitro HT Medium to 37° C. in a sterile 50 ml conical tube. Add 1.0 mL Torpedo Antibiotic Mix per 45 mL InVitro HT medium. Transfer 13 mL of warm HT medium with Antibiotic Mix into a 15 mL conical tube. Carefully remove the hepatocyte vials from liquid nitrogen (liquid phase). Immediately immerse the vial into a 37° C. water bath. Shake gently until the ice melts entirely. […] Immediately empty contents of the vial into 13 ml of pre-warmed InVitro HT Medium with antibiotics. Rinse the vial with the HT media just transferred the hepatocytes to, in order to ensure complete transfer. Centrifuge the cell suspension at 600 RPM for 5 minutes at room temperature. […] Add 1.0 ml of KHB (at room temperature) buffer to the tube of hepatocyte pellet. Loosen the cell pellet by gently swirling the centrifuge tube. Transfer 100 μL of above solution to a different tube and add 900 μL of KHB buffer to count the cells. Determine the total cell count and the number of viable cells using the Trypan Blue exclusion method. Once the cell count is obtained, multiply the number by 10 (attributing to the dilution factor). Add required volume of KHB buffer to the tube containing hepatocytes such that the final count will be 2 million cells/mL. Dispense 50 μL of 2 million cells/ml to a 96 well plate and then add 50 μl of DMSO stock to respective wells (such that, the concentration of RGFP compounds is 5 μM and number of cells are 100000 in each well). Place the plates on a shaker in a 37° C. incubator with 5% CO2. Separate plates for each time point are advisable (Time points: 0 h, 1 h, 2 h, and 6 h). After each time point, add 100 μL of quenching solution. Quenching solution is an acetonitrile solution containing RGFP531 (10 μM) internal standard, 0.1% formic acid and phenylglyoxol (400 μM). The formic acid and phenylglyoxal is used for the identification and quantification of OPD as mentioned above. Pipette up and down a few times to ensure a complete stop of reaction. Transfer all the solution into a 1.5 ml tube, vortex thoroughly, and centrifuge at 14000 RPM at 4° C. for 5 minutes to precipitate cell debris. Transfer the 150 μL of supernatant to vials for analysis on LC-MS/MS.
LC-MS/MS parameters for RGFP compounds and metabolites including OPD: LC-MS/MS Parameters for API 2000 QTrap: System: HPLC 1100; Column: Gemini C18, 5 μM 4.6×50 mm; Column Temp: Ambient; MS: API 2000 QTrap (MI mode); Mobile Phase A: HPLC water with 0.05% Formic Acid; Mobile Phase B: Acetonitrile with 0.05% Formic Acid.

Data set [2] in a line: Brain penetration studies. In kind it is in vivo. As to conditions: C57/BL6/J, mouse; mice, s.c. 5 or 50 mg/kg or i.v. 5 mg/kg; Cmax(brain)/Cmax(plasma); read-out: BPR (brain/plasma ratio). How it is done:
Test compounds were prepared at either 0.5 mg/ml or 5 mg/ml in 30% hydroxypropyl-β-cyclodextrin, 100 mM sodium acetate pH 5.5, 5% DMSO. C57/BL6/J mice were dosed s.c. at 5 mg/kg or 50 mg/kg, or i.v. at 5 mg/kg. Animals were euthanized at pre-dose, 5, 15, 30 min, 1, 2 and 4 hours post-dose and plasma and brain obtained. Three animals per dose per time points were used. The levels of compound in the plasma and brain were determined by standard LC/MS/MS methods. Brain/plasma ratio (BPR) was calculated as the ratio of the Cmax(brain)/Cmax(plasma). The results are shown in Table 5, where IA corresponds to a BPR less than 0.1, D is between 0.1 and 0.2, C is 0.2 to 0.5, B comprises 0.5 to 1 and A is greater than 1.

A short description of data set [3]: Acid stability determination. Type of data set: physicochemical. As to conditions: 0.01 M HCl, 50° C., 100 μM. As for the experimental part:
A 100 μM solution of test compound was prepared by dilution of a 10 mM DMSO stock solution in a 0.01 M solution of HCl in deionized water. Immediately after mixing, an aliquot (100 μL) was sampled and analyzed by HPLC/UV. The area under the compound peak was determined and used as the time zero reference point. The remainder of the acid sample was incubated at 50° C. and samples were taken after 2, 4, and 24 hours of incubation. On a few occasions, samples were taken at 30 rather than 24 hours. These were analyzed by the same HPLC/UV method and the area of the peak corresponding to the test compound was measured. Percent remaining at a given time point was then calculated as the ratio of the area under the peak after incubation to that at time zero times 100. In those cases where a 30 hour time point was recorded, the percent remaining at 24 hours was obtained by interpolation of the percent remaining versus time curve assuming a unimolecular process, i.e. a monoexponential decay. Percent remaining after 24 hours incubation are presented in Table 5 below, where A corresponds to more than 60%, B is between 40 and 60%, C covers 20 to 40% and D means less than 20%.

For the next data set, the target named is HDAC2 (Homo sapiens (Human), UniProt Q92769). The data set can be described thus: HDAC enzyme inhibition assay (Fluor-de-Lys), HDAC2. In kind it is biochemical. As to conditions: 2 hours pre-incubation. How it is done: (§1) The HDAC activity inhibition assay was performed as follows to determine the ability of a test compound to inhibit HDAC enzymatic activity. Serial dilutions of HDAC inhibitors were prepared in HDAC assay buffer (25 mM Tris/HCl, pH 8.0, 137 mM NaCl, 2.7 mM KCl, 1 mM MgCl2, pH 8) in 96-well assay plates (Fisher scientific, #07-200-309) and were pre-incubated for 2 hours at room temperature in the presence of 125 μg/ml BSA and purified HDAC1 (BPS Bioscience, San Diego, Calif., #50051), HDAC2 (BPS Bioscience, #50053), or HDAC3/NcoR2 (BPS Bioscience, #50003) at concentrations of 1.25, 1.32, and 0.167 μg/mL, respectively. Following pre-incubation, Fluor-de-Lys™ substrate (Enzo Life Sciences, Plymouth Meeting, Pa., BML-KI104-0050) was added to a final concentration of 10 μM and plates were further incubated for 30 minutes at room temperature. The enzymatic reaction was stopped by addition of Trichostatin A (Sigma-Aldrich, St Louis, Mo., #T8552, final concentration: 100 nM) and trypsin (MP Biomedicals, Solon, Ohio, #02101179) was added to reach a final concentration of 100 μg/mL. After a 15 minute incubation at room temperature, fluorescence was recorded using a Spectramax M2 fluorometer (Molecular Devices, Sunnyvale, Calif.) with excitation at 365 nm and emission at 460 nm. IC50 values were calculated by using a sigmoidal dose-response (variable slope) equation in GraphPad Prism® 5 for Windows (GraphPad Software, La Jolla, Calif.). Results for selected compounds in the HDAC activity inhibition assay are presented in Table 5 (IC50 ranges: IA>20 μM, A<1 μM, 1<B<5 μM, 5<C<10 μM, 10<D<20 μM, ND: not determined).

For a further data set, the target named is HDAC3/NcoR2 (Homo sapiens (Human), UniProt O15379). The data set can be described thus: HDAC enzyme inhibition assay (Fluor-de-Lys), HDAC3/NcoR2. In kind it is biochemical. To be noted: HDAC3/NcoR2, 2 hours pre-incubation. As for the experimental part: as §1
A further data set has as its target HDAC1 (Homo sapiens (Human), UniProt Q13547). In words: HDAC enzyme inhibition assay (Fluor-de-Lys), HDAC1. To be noted: 2 hours pre-incubation. In kind it is biochemical. How it is done: as §1
For data set [4] the following is noted: rats, subcutaneous, cited from earlier work.
On the set-up of data set [5]: dose or concentration left out as unconfirmed. To be noted: male rats, oral, 78 weeks, cited from earlier work.

HDAC1, sequence (Q13547 whole entry): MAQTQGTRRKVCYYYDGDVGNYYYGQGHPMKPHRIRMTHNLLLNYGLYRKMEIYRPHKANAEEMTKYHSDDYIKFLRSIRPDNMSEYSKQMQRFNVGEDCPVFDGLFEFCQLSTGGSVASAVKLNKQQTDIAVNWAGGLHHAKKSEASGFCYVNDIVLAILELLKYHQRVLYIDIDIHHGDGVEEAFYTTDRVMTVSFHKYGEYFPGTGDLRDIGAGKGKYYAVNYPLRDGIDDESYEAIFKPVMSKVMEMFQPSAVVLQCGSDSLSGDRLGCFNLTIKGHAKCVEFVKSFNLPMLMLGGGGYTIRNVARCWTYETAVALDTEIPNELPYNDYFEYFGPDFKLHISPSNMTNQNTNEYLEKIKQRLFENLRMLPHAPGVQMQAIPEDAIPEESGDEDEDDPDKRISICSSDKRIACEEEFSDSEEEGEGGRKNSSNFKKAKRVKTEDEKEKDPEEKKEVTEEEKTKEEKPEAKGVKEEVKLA
HDAC2, sequence (Q92769 whole entry): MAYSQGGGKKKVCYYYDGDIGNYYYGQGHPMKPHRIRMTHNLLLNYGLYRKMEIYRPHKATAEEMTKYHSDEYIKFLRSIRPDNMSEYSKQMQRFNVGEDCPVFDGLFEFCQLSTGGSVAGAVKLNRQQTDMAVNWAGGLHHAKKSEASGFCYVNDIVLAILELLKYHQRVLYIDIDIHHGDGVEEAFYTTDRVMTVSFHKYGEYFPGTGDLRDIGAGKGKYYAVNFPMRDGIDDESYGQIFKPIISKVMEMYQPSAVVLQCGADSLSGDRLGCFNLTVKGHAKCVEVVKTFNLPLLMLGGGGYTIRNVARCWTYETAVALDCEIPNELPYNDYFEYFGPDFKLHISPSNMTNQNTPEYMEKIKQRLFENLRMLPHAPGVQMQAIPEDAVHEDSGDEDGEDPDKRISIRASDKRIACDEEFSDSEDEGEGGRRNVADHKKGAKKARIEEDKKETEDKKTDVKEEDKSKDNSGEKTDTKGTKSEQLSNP
HDAC3/NcoR2, sequence (O15379 whole entry): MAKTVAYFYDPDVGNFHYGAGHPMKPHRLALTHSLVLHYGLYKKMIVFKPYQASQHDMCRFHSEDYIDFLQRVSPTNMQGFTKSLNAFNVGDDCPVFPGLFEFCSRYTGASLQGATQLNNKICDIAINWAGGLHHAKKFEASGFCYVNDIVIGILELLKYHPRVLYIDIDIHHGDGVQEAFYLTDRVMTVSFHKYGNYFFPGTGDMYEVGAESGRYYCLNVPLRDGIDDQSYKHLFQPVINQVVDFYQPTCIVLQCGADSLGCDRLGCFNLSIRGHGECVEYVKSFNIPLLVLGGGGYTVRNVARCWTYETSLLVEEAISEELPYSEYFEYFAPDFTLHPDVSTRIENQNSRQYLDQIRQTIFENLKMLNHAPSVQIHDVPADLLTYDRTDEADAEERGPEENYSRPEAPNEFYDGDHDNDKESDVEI
HDAC3/NcoR2, sequence (Q9Y618 395-489 partner): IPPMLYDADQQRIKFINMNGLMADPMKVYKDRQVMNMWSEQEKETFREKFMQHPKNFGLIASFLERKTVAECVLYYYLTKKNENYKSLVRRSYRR

Broadly, the IC50 is the point on the concentration scale where inhibition reaches its midpoint. In the case of `Nc1cc(F)ccc1NC(=O)c1ccc2c(cnn2Cc2ccc(F)c(F)c2)c1` [Compound A10], in data set [1], the “% left 6H Hum hep” value is reported as “C (30%>C>10%)”. Moreover, the OPD result in data set [1] was “No OPD”. The Kp in data set [2] is greater than 1. Further, the “Acid Stability % Left 24 hr” value in data set [3] is “C (C covers 20 to 40%)”. Further, the IC50 at HDAC2, at HDAC3/NcoR2 and against HDAC1 was less than 1000 nM in each case.
In the case of `Nc1ccccc1NC(=O)c1ccc2c(cnn2CC2CC2)c1` [Compound A11], the “% left 6H Hum hep” value in data set [1] is on record as “B (50%>B>30%)”. Besides, the OPD result in data set [1] is recorded as “No OPD”. Moreover, the Kp in data set [2] was in the range of 0.2 to 0.5. Besides, the “Acid Stability % Left 24 hr” value in data set [3] is “B (B is between 40 and 60%)”. The IC50 at HDAC2, against HDAC3/NcoR2 and against HDAC1 was less than 1000 nM in each case.
As for `Nc1ccccc1N` [OPD, o-phenylenediamine], the tumors result in data set [4] (45 mg/kg every second day for 11 months) and in data set [4] (90 mg/kg every second day for 5 months) was “not detected” each time. In addition, the “rats with liver tumors” value in data set [5] (8000 low dose) is 5 out of 17; in data set [5] (16000 high dose) it was 5 out of 16.
